These compounds were tested on HIV (assay: MT4 Assay (anti-HIV activity)). Conditions: Human immunodeficiency virus 1, 96 h, read-out: HIV MT4 Assay IC50, HTLV-1 transformed cell line MT-4, cell titer glo, 10 point dose response curve.
Format: cell-based
Description: Antiviral HIV activity and cytotoxicity values for compounds of the invention from Table 1 were measured in parallel in the HTLV-1 transformed cell line MT-4 based on the method previously described (Hazen et al., 2007, In vitro antiviral activity of the novel, tyrosyl-based human immunodeficiency virus (HIV) type 1 protease inhibitor brecanavir (GW640385) in combination with other antiretrovirals and against a panel of protease inhibitor-resistant HIV (Hazen et al., “In vitro antiviral activity of the novel, tyrosyl-based human immunodeficiency virus (HIV) type 1 protease inhibitor brecanavir (GW640385) in combination with other antiretrovirals and against a panel of protease inhibitor-resistant HIV”, Antimicrob. Agents Chemother. 2007, 51: 3147-3154; and Pauwels et al., “Sensitive and rapid assay on MT-4 cells for the detection of antiviral compounds against the AIDS virus”, J. of Virological Methods 1987, 16: 171-185).
Luciferase activity was measured 96 hours later by adding a cell titer glo (Promega, Madison, Wis.). Percent inhibition of cell protection data was plotted relative to no compound control. Under the same condition, cytotoxicity of the compounds was determined using cell titer glo (Promega, Madison, Wis.). IC50s were determined from a 10 point dose response curve using 3-4-fold serial dilution for each compound, which spans a concentration range >1000 fold.

SMILES | IC50 [µM]
COc1cccc(-c2ccc3c(-c4cc(F)c5c(c4C)CCCO5)c([C@H](OC(C)(C)C)C(=O)O)n(C)c(=O)c3c2)n1 (atropisomer, axis not shown; (M)) [Example 208, (2S)(M)-[(1,1-dimethylethyl)oxy]{4-(8-fluoro-5-methyl-3,4-dihydro-2H-chromen-6-yl)-2-methyl-7-[6-(methyloxy)-2-pyridinyl]-1-oxo-1,2-dihydro-3-isoquinolinyl}ethanoic acid] | 0.04
Cc1c(-c2c([C@H](OC(C)(C)C)C(=O)O)n(C)c(=O)c3cc(-c4ccc(F)cc4)ccc23)cc(F)c2c1CCCO2 (atropisomer, axis not shown; (M)) [Example 209, (S)(M)-2-(tert-butoxy)-2-(4-(8-fluoro-5-methylchroman-6-yl)-7-(4-fluorophenyl)-2-methyl-1-oxo-1,2-dihydroisoquinolin-3-yl)acetic acid] | 0.02
Cc1c(-c2c([C@H](OC(C)(C)C)C(=O)O)n(C)c(=O)c3cc(-c4cccc(F)c4)ccc23)cc(F)c2c1CCCO2 (atropisomer, axis not shown; (M)) [Example 210, (S)(M)-2-(tert-butoxy)-2-(4-(8-fluoro-5-methylchroman-6-yl)-7-(3-fluorophenyl)-2-methyl-1-oxo-1,2-dihydroisoquinolin-3-yl)acetic acid] | 0.01
Cc1c(-c2c([C@H](OC(C)(C)C)C(=O)O)n(C)c(=O)c3cc(-c4ccccc4F)ccc23)cc(F)c2c1CCCO2 (atropisomer, axis not shown; (M)) [Example 211, (S)(M)-2-(tert-butoxy)-2-(4-(8-fluoro-5-methylchroman-6-yl)-7-(2-fluorophenyl)-2-methyl-1-oxo-1,2-dihydroisoquinolin-3-yl)acetic acid] | 0.02
Cc1c(-c2c([C@H](OC(C)(C)C)C(=O)NO)n(C)c(=O)c3ccccc23)cc(F)c2c1CCCO2 (atropisomer, axis not shown; (M)) [Example 213, (S)(M)-2-(tert-butoxy)-2-(4-(8-fluoro-5-methylchroman-6-yl)-2-methyl-1-oxo-1,2-dihydroisoquinolin-3-yl)-N-hydroxyacetamide] | 5.25
Cc1c(-c2c([C@H](OC(C)(C)C)C(=O)N(C)O)n(C)c(=O)c3ccccc23)cc(F)c2c1CCCO2 (atropisomer, axis not shown; (M)) [Example 214, (S)(M)-2-(tert-butoxy)-2-(4-(8-fluoro-5-methylchroman-6-yl)-2-methyl-1-oxo-1,2-dihydroisoquinolin-3-yl)-N-hydroxy-N-methylacetamide] | 4.84
Cc1c(-c2c([C@H](OC(C)(C)C)C(=O)NS(C)(=O)=O)n(C)c(=O)c3ccccc23)cc(F)c2c1CCCO2 (atropisomer, axis not shown; (M)) [Example 215, (2S)(M)-2-[(1,1-dimethylethyl)oxy]-2-[4-(8-fluoro-5-methyl-3,4-dihydro-2H-chromen-6-yl)-2-methyl-1-oxo-1,2-dihydro-3-isoquinolinyl]-N-(methylsulfonyl)ethanamide] | 11.1
COc1c(C)cc(-c2c(C(OC(C)(C)C)C(=O)O)n(C)c(=O)c3ccccc23)cc1C (centres unmarked) [Example 1, tert-Butoxy-[4-(4-methoxy-3,5-dimethyl-phenyl)-2-methyl-1-oxo-1,2-dihydro-isoquinolin-3-yl]-acetic acid] | 6.59
Cc1ccc(-c2c([C@H](OC(C)(C)C)C(=O)O)n(C)c(=O)c3ccccc23)cc1C [Example 3, (S)-2-(tert-butoxy)-2-(4-(3,4-dimethylphenyl)-2-methyl-1-oxo-1,2-dihydroisoquinolin-3-yl)acetic acid] | 0.44
Cc1c(-c2c(C(OC(C)(C)C)C(=O)O)n(C)c(=O)c3cc(OCCO)ccc23)ccc2c1CCCO2 (centres unmarked) [Example 4, tert-Butoxy-[7-(2-hydroxy-ethoxy)-2-methyl-4-(5-methyl-chroman-6-yl)-1-oxo-1,2-dihydro-isoquinolin-3-yl]-acetic acid] | 3.7
Cn1c(C(OC(C)(C)C)C(=O)O)c(-c2ccc(OC(F)(F)F)cc2)c2ccccc2c1=O (centres unmarked) [Example 5, 2-(tert-butoxy)-2-{2-methyl-1-oxo-4-[4-(trifluoromethoxy)phenyl]-1,2-dihydroisoquinolin-3-yl}acetic acid] | 41.7
Cn1c(C(OC(C)(C)C)C(=O)O)c(-c2cc(F)cc(F)c2)c2ccccc2c1=O (centres unmarked) [Example 6, 2-(tert-butoxy)-2-[4-(3,5-difluorophenyl)-2-methyl-1-oxo-1,2-dihydroisoquinolin-3-yl]acetic acid] | 10.6
Cc1ccc(-c2c(C(OC(C)(C)C)C(=O)O)n(C)c(=O)c3ccccc23)cc1 (centres unmarked) [Example 7, 2-(tert-butoxy)-2-[2-methyl-4-(4-methylphenyl)-1-oxo-1,2-dihydroisoquinolin-3-yl]acetic acid] | 0.7
COc1ccc(-c2c(C(OC(C)(C)C)C(=O)O)n(C)c(=O)c3ccccc23)cc1 (centres unmarked) [Example 8, 2-(tert-butoxy)-2-[4-(4-methoxyphenyl)-2-methyl-1-oxo-1,2-dihydroisoquinolin-3-yl]acetic acid] | 1.3
Cn1c(C(OC(C)(C)C)C(=O)O)c(-c2ccc(F)cc2)c2ccccc2c1=O (centres unmarked) [Example 9, 2-(tert-butoxy)-2-[4-(4-fluorophenyl)-2-methyl-1-oxo-1,2-dihydroisoquinolin-3-yl]acetic acid] | 1.33
Cc1cc(C)cc(-c2c(C(OC(C)(C)C)C(=O)O)n(C)c(=O)c3ccccc23)c1 (centres unmarked) [Example 10, 2-(tert-butoxy)-2-[4-(3,5-dimethylphenyl)-2-methyl-1-oxo-1,2-dihydroisoquinolin-3-yl]acetic acid] | 10.5
Cn1c(C(OC(C)(C)C)C(=O)O)c(-c2ccc(Cl)c(Cl)c2)c2ccccc2c1=O (centres unmarked) [Example 11, 2-(tert-butoxy)-2-[4-(3,4-dichlorophenyl)-2-methyl-1-oxo-1,2-dihydroisoquinolin-3-yl]acetic acid] | 14.8
Cn1c(C(OC(C)(C)C)C(=O)O)c(-c2cc(Cl)cc(Cl)c2)c2ccccc2c1=O (centres unmarked) [Example 12, 2-(tert-butoxy)-2-[4-(3,5-dichlorophenyl)-2-methyl-1-oxo-1,2-dihydroisoquinolin-3-yl]acetic acid] | 36.7
Cn1c(C(OC(C)(C)C)C(=O)O)c(-c2cccc(C(F)(F)F)c2)c2ccccc2c1=O (centres unmarked) [Example 13, 2-(tert-butoxy)-2-{2-methyl-1-oxo-4-[3-(trifluoromethyl)phenyl]-1,2-dihydroisoquinolin-3-yl}acetic acid] | 23.8
Cn1c(C(OC(C)(C)C)C(=O)O)c(-c2cc(Cl)ccc2Cl)c2ccccc2c1=O (centres unmarked) [Example 14, 2-(tert-butoxy)-2-[4-(2,5-dichlorophenyl)-2-methyl-1-oxo-1,2-dihydroisoquinolin-3-yl]acetic acid] | 2.57
COc1cccc(-c2c(C(OC(C)(C)C)C(=O)O)n(C)c(=O)c3ccccc23)c1 (centres unmarked) [Example 15, 2-(tert-butoxy)-2-[4-(3-methoxyphenyl)-2-methyl-1-oxo-1,2-dihydroisoquinolin-3-yl]acetic acid] | 8.59
Cn1c(C(OC(C)(C)C)C(=O)O)c(-c2cccc(OC(F)(F)F)c2)c2ccccc2c1=O (centres unmarked) [Example 16, 2-(tert-butoxy)-2-{2-methyl-1-oxo-4-[3-(trifluoromethoxy)phenyl]-1,2-dihydroisoquinolin-3-yl}acetic acid] | 20.7
Cn1c(C(OC(C)(C)C)C(=O)O)c(-c2ccc(C(F)(F)F)cc2)c2ccccc2c1=O (centres unmarked) [Example 17, 2-(tert-butoxy)-2-{2-methyl-1-oxo-4-[4-(trifluoromethyl)phenyl]-1,2-dihydroisoquinolin-3-yl}acetic acid] | 18.4
Cc1cccc(-c2c(C(OC(C)(C)C)C(=O)O)n(C)c(=O)c3ccccc23)c1 (centres unmarked) [Example 18, 2-(tert-butoxy)-2-[2-methyl-4-(3-methylphenyl)-1-oxo-1,2-dihydroisoquinolin-3-yl]acetic acid] | 3.58
Cc1c(-c2c(C(OC(C)(C)C)C(=O)O)n(C)c(=O)c3ccccc23)ccc2c1CCCO2 (centres unmarked) [Example 19, 2-(tert-butoxy)-2-[2-methyl-4-(5-methyl-3,4-dihydro-2H-1-benzopyran-6-yl)-1-oxo-1,2-dihydroisoquinolin-3-yl]acetic acid] | 0.41
Cc1cc2c(cc1-c1c(C(OC(C)(C)C)C(=O)O)n(C)c(=O)c3ccccc13)CCCO2 (centres unmarked) [Example 20, 2-(tert-butoxy)-2-[2-methyl-4-(7-methyl-3,4-dihydro-2H-1-benzopyran-6-yl)-1-oxo-1,2-dihydroisoquinolin-3-yl]acetic acid] | 3.79
Cn1c(C(OC(C)(C)C)C(=O)O)c(-c2ccc3c(c2Cl)CCCO3)c2ccccc2c1=O (centres unmarked) [Example 21, 2-(tert-butoxy)-2-[4-(5-chloro-3,4-dihydro-2H-1-benzopyran-6-yl)-2-methyl-1-oxo-1,2-dihydroisoquinolin-3-yl]acetic acid] | 3.5
Cn1c(C(OC(C)(C)C)C(=O)O)c(-c2ccc(OC3CCCCC3)cc2)c2ccccc2c1=O (centres unmarked) [Example 24, 2-(tert-butoxy)-2-{4-[4-(cyclohexyloxy)phenyl]-2-methyl-1-oxo-1,2-dihydroisoquinolin-3-yl}acetic acid] | 25
Cn1c(C(OC(C)(C)C)C(=O)O)c(-c2ccc3c(c2)CCCO3)c2cc(F)ccc2c1=O (centres unmarked) [Example 25, 2-(tert-butoxy)-2-[4-(3,4-dihydro-2H-1-benzopyran-6-yl)-6-fluoro-2-methyl-1-oxo-1,2-dihydroisoquinolin-3-yl]acetic acid] | 0.67
